# In the kinase profiling compilation of Christmann-Franck et al. (2016):
# What was measured:
# Experiment in all cases: radiometric filter-binding kinase assay, Kinase HotSpot
# Conditions in all cases: compound 0.5 µM; ATP 10 µM
# [1] = molecular target: AURKA (human) (UniProt O14965)
# [2] = molecular target: BMX (human) (UniProt P51813)
# [3] = molecular target: BTK (human) (UniProt Q06187)
# [4] = molecular target: CDC42BPB (human) (UniProt Q9Y5S2)
# [5] = molecular target: CDK9 CCNK (human) (UniProt O75909+P50750)
# [6] = molecular target: CLK4 (human) (UniProt Q9HAZ1)
# [7] = molecular target: CSNK1D (human) (UniProt P48730)
# [8] = molecular target: DAPK1 (human) (UniProt P53355)
# [9] = molecular target: DCLK2 (human) (UniProt Q8N568)
# [10] = molecular target: DSTYK (human) (UniProt Q6XUX3)
# DSTYK (human), sequence (Q6XUX3 whole entry, looked up): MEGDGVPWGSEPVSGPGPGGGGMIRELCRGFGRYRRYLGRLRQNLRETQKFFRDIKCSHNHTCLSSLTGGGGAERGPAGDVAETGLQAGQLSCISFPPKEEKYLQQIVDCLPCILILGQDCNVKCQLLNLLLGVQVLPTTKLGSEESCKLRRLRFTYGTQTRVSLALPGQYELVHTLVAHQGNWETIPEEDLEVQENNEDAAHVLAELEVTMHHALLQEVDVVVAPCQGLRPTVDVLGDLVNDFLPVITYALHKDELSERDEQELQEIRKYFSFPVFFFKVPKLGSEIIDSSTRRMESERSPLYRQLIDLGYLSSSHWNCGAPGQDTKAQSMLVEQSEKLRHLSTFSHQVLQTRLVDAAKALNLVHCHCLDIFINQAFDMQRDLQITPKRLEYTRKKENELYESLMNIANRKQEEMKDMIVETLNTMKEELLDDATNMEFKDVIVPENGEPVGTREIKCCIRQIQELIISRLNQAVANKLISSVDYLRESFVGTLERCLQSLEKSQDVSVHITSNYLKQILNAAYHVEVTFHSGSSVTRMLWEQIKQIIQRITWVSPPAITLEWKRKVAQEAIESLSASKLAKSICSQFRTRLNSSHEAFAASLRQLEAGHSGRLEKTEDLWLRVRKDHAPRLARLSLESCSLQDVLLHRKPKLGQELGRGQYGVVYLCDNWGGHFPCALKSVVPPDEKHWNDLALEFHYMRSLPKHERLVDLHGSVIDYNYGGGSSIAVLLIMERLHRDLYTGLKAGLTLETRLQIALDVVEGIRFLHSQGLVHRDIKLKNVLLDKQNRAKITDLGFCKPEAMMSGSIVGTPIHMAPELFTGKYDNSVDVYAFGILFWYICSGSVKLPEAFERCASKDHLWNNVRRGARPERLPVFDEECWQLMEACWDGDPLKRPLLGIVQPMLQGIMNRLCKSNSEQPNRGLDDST
# [11] = molecular target: DYRK2 (human) (UniProt Q92630)
# DYRK2 (human), sequence (Q92630 whole entry, looked up): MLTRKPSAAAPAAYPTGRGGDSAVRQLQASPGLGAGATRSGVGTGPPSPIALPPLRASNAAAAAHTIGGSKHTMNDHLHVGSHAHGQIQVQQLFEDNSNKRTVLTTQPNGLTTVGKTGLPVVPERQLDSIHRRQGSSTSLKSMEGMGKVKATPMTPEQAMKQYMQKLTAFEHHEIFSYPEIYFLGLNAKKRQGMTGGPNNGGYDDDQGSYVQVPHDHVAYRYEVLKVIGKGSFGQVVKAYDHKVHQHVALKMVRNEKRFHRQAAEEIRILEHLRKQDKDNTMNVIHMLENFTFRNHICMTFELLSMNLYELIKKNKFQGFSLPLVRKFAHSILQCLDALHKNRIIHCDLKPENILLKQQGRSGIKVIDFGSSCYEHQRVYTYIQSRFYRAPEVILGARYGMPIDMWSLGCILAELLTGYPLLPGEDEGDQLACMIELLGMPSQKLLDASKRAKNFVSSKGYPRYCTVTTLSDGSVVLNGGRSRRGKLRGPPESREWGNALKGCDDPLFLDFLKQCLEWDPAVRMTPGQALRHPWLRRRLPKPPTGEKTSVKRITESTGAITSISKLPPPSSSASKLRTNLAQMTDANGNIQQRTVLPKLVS
# [12] = molecular target: EPHA5 (human) (UniProt P54756)
# [13] = molecular target: ERBB2 (human) (UniProt P04626)
# ERBB2 (human), sequence (P04626 whole entry, looked up): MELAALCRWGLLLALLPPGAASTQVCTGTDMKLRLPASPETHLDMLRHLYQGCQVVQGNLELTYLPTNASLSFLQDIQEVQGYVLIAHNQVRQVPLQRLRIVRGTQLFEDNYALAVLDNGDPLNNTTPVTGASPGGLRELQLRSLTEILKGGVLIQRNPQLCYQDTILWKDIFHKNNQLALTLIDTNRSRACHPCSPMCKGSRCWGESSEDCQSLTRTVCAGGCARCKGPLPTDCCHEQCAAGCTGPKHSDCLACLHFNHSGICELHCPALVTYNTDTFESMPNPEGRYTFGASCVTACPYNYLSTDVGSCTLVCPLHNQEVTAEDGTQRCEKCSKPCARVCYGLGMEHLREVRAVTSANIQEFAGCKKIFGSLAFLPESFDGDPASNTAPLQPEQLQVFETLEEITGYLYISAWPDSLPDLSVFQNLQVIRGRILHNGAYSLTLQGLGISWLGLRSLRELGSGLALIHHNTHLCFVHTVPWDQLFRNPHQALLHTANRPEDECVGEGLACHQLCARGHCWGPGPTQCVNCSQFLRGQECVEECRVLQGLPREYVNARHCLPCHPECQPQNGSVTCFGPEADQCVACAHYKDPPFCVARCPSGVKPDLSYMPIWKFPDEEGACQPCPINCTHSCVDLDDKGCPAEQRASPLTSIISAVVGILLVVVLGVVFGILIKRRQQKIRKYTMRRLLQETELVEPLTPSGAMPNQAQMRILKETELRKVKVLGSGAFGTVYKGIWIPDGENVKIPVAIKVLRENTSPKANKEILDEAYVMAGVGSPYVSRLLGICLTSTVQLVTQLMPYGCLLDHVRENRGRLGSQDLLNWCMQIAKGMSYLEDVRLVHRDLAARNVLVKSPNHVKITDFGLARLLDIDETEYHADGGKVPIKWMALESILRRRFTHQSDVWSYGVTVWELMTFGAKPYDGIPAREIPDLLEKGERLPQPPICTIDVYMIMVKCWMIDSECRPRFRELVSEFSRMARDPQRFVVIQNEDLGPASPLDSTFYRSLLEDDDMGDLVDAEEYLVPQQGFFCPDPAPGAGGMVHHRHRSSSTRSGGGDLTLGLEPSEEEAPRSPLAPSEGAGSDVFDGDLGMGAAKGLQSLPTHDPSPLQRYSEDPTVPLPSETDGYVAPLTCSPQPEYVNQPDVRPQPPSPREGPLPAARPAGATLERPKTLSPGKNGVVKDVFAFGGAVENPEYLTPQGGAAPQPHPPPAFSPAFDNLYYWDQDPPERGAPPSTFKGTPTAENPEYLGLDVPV
# [14] = molecular target: FES (human) (UniProt P07332)
# [15] = molecular target: FGFR3 (human) (UniProt P22607)
# [16] = molecular target: FGR (human) (UniProt P09769)
# [17] = molecular target: GSG2 (human) (UniProt Q8TF76)
# [18] = molecular target: HCK (human) (UniProt P08631)
# [19] = molecular target: HIPK2 (human) (UniProt Q9H2X6)
# [20] = molecular target: ITK (human) (UniProt Q08881)
# [21] = molecular target: KDR (human) (UniProt P35968)
# [22] = molecular target: MAP2K1 (human) (UniProt Q02750)
# [23] = molecular target: MAP3K9 (human) (UniProt P80192)
# MAP3K9 (human), sequence (P80192 whole entry, looked up): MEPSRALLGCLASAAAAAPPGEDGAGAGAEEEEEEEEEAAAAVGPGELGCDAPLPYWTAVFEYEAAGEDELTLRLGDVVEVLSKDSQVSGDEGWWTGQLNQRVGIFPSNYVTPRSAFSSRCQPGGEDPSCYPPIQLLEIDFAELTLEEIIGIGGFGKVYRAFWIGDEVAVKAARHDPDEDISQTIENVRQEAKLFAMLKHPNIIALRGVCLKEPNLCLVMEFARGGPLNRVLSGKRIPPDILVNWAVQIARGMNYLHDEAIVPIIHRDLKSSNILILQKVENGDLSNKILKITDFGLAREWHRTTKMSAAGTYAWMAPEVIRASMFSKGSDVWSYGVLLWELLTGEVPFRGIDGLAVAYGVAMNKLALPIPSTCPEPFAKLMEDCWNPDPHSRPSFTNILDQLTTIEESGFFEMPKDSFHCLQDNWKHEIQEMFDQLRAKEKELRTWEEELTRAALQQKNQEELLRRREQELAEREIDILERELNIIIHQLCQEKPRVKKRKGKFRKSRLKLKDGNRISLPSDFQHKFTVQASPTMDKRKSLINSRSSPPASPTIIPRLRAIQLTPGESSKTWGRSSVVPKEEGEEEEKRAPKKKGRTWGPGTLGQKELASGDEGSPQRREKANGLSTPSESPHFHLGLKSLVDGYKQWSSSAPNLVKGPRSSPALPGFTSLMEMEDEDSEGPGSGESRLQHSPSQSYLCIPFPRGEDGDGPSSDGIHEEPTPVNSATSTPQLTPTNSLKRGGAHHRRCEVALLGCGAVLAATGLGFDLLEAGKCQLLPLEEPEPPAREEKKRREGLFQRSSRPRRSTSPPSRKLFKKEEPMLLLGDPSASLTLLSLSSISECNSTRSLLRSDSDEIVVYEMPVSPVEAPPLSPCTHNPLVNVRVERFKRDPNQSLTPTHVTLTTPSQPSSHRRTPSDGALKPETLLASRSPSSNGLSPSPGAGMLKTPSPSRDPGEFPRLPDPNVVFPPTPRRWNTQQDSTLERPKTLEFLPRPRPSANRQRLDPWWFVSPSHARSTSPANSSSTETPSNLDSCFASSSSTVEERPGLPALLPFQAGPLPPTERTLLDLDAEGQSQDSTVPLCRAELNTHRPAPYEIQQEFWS
# [24] = molecular target: MARK3 (human) (UniProt P27448)
# [25] = molecular target: MST4 (human) (UniProt Q9P289)
# MST4 (human), sequence (Q9P289 whole entry, looked up): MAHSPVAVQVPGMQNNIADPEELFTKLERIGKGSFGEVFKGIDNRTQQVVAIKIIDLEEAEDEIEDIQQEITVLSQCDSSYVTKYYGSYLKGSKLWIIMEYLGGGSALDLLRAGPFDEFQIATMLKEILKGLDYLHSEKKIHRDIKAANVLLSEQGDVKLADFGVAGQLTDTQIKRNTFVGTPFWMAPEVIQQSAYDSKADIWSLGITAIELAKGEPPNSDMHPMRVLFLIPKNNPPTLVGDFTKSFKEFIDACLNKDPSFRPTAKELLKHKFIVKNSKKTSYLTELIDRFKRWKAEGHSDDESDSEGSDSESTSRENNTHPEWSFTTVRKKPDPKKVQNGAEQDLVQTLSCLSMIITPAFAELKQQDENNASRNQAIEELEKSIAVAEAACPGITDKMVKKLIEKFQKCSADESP
# [26] = molecular target: NEK6 (human) (UniProt Q9HC98)
# [27] = molecular target: PLK1 (human) (UniProt P53350)
# [28] = molecular target: PLK3 (human) (UniProt Q9H4B4)
# [29] = molecular target: PRKACA (human) (UniProt P17612)
# [30] = molecular target: PRKCA (human) (UniProt P17252)
# [31] = molecular target: PRKCB1 (human) (UniProt P05771)
# [32] = molecular target: PTK2B (human) (UniProt Q14289)
# [33] = molecular target: RPS6KA6 KD1 KD2 (human) (UniProt Q9UK32)
# [34] = molecular target: RPS6KB2 (human) (UniProt Q9UBS0)
# RPS6KB2 (human), sequence (Q9UBS0 whole entry, looked up): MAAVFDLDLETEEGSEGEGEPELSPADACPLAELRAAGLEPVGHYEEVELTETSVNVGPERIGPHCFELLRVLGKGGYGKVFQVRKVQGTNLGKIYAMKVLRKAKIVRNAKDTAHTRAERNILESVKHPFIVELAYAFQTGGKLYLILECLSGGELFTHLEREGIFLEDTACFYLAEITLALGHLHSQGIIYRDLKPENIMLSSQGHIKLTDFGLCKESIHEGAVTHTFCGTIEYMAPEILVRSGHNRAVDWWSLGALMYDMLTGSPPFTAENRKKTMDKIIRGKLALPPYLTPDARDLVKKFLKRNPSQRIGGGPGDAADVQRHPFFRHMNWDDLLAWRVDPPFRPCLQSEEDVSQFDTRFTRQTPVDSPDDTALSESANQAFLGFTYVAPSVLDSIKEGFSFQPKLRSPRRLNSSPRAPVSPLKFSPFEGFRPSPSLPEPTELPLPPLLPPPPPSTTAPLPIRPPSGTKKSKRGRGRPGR
# [35] = molecular target: SRC (human) (UniProt P12931)
# [36] = molecular target: SRPK3 (human) (UniProt Q9UPE1)
# [37] = molecular target: STK24 (human) (UniProt Q9Y6E0)
# [38] = molecular target: STK4 (human) (UniProt Q13043)
# [39] = molecular target: TXK (human) (UniProt P42681)
# [40] = molecular target: WEE1 (human) (UniProt P30291)
# [41] = molecular target: WNK2 (human) (UniProt Q9Y3S1)
# [42] = molecular target: YES1 (human) (UniProt P07947)
compound,measurement,setting,value
Cn1sc(=O)n(Cc2ccccc2)c1=O,residual activity,[1],104%
same,residual activity,[2],91.6%
same,residual activity,[3],103%
same,residual activity,[4],96.4%
same,residual activity,[5],97.2%
same,residual activity,[6],99.1%
same,residual activity,[7],100%
same,residual activity,[8],97.9%
same,residual activity,[9],98.5%
same,residual activity,[10],92.9%
same,residual activity,[11],104%
same,residual activity,[12],103%
same,residual activity,[13],106%
same,residual activity,[14],101%
same,residual activity,[15],100%
same,residual activity,[16],101%
same,residual activity,[17],99%
same,residual activity,[18],103%
same,residual activity,[19],99.6%
same,residual activity,[20],93.2%
same,residual activity,[21],89.4%
same,residual activity,[22],83.8%
same,residual activity,[23],99.4%
same,residual activity,[24],97.1%
same,residual activity,[25],98.1%
same,residual activity,[26],102%
same,residual activity,[27],97.2%
same,residual activity,[28],99.1%
same,residual activity,[29],105%
same,residual activity,[30],71.8%
same,residual activity,[31],110%
same,residual activity,[32],91%
same,residual activity,[33],104%
same,residual activity,[34],101%
same,residual activity,[35],95%
same,residual activity,[36],97.3%
same,residual activity,[37],105%
same,residual activity,[38],107%
same,residual activity,[39],99.8%
same,residual activity,[40],92.3%
same,residual activity,[41],99.1%
same,residual activity,[42],96.3%
Cn1nc2c3c(cccc31)C(=O)c1ccccc1-2,residual activity,[1],89.4%
same,residual activity,[2],101%
same,residual activity,[3],89.5%
same,residual activity,[4],98%
same,residual activity,[5],96.5%
same,residual activity,[6],69.8%
same,residual activity,[7],20.8%
same,residual activity,[8],86.4%
same,residual activity,[9],94.2%
same,residual activity,[10],101%
same,residual activity,[11],99.4%
same,residual activity,[12],126%
same,residual activity,[13],96.9%
same,residual activity,[14],94.4%
same,residual activity,[15],95.9%
same,residual activity,[16],93.4%
same,residual activity,[17],53.1%
same,residual activity,[18],94.6%
same,residual activity,[19],105%
same,residual activity,[20],88.3%
same,residual activity,[21],101%
same,residual activity,[22],86.3%
same,residual activity,[23],99.4%
same,residual activity,[24],96.6%
same,residual activity,[25],108%
same,residual activity,[26],108%
same,residual activity,[27],97%
same,residual activity,[28],96.2%
same,residual activity,[29],104%
same,residual activity,[30],96.1%
same,residual activity,[31],94.7%
same,residual activity,[32],102%
same,residual activity,[33],90.4%
same,residual activity,[34],94.7%
same,residual activity,[35],90.7%
same,residual activity,[36],96.3%
same,residual activity,[37],98.6%
same,residual activity,[38],78.9%
same,residual activity,[39],92%
same,residual activity,[40],92.3%
same,residual activity,[41],104%
same,residual activity,[42],94.5%
CCN(CC)CCCCN1c2ccccc2Oc2ccc(Cl)cc21,residual activity,[1],93.3%
same,residual activity,[2],104%
same,residual activity,[3],99.2%
same,residual activity,[4],99.7%
same,residual activity,[5],105%
same,residual activity,[6],97%
same,residual activity,[7],105%
same,residual activity,[8],76.6%
same,residual activity,[9],101%
same,residual activity,[10],106%
same,residual activity,[11],101%
same,residual activity,[12],109%
same,residual activity,[13],96.6%
same,residual activity,[14],99.8%
same,residual activity,[15],91.8%
same,residual activity,[16],101%
same,residual activity,[17],104%
same,residual activity,[18],105%
same,residual activity,[19],118%
same,residual activity,[20],101%
same,residual activity,[21],93.7%
same,residual activity,[22],98.1%
same,residual activity,[23],95.7%
same,residual activity,[24],102%
same,residual activity,[25],98%
same,residual activity,[26],107%
same,residual activity,[27],109%
same,residual activity,[28],102%
same,residual activity,[29],98.4%
same,residual activity,[30],83%
same,residual activity,[31],101%
same,residual activity,[32],99.6%
same,residual activity,[33],109%
same,residual activity,[34],107%
same,residual activity,[35],106%
same,residual activity,[36],104%
same,residual activity,[37],90%
same,residual activity,[38],98.9%
same,residual activity,[39],101%
same,residual activity,[40],92.7%
same,residual activity,[41],119%
same,residual activity,[42],88.5%
